The test system of this data set is CCRIS mutagenicity, Ames/micronucleus/aberration tests. Nature of the data set: CCRIS mutagenicity studies.
Setting [1] is: Test System: AMES SALMONELLA TYPHIMURIUM, Strain/Indicator: TA98, Metabolic Activation: NONE, Method: STANDARD PLATE.
Setting [2] is: Test System: AMES SALMONELLA TYPHIMURIUM, Strain/Indicator: TA1535, Metabolic Activation: NONE, Method: STANDARD PLATE.

Activity calls are given as the source filed them. No rule for the calls is given here.

In the case of `COc1cc(NC(C)CCCN)c2ncccc2c1` (stereo unspecified), the mutagenic call is, setting by setting: (Test System: AMES SALMONELLA TYPHIMURIUM, Strain/Indicator: TA97, Metabolic Activation: NONE, Method: PREINCUBATION) “active; positive”; (Test System: AMES SALMONELLA TYPHIMURIUM, Strain/Indicator: TA97, Metabolic Activation: RAT, LIVER, S-9, PHENOBARBITAL AND BETA-NAPHTHOFLAVONE, Method: PREINCUBATION) “active; positive”; (Test System: AMES SALMONELLA TYPHIMURIUM, Strain/Indicator: TA97A, Metabolic Activation: NONE, Method: STANDARD PLATE) “inactive; negative”; (Test System: AMES SALMONELLA TYPHIMURIUM, Strain/Indicator: TA97A, Metabolic Activation: RAT LIVER S-9, PHENOBARBITAL, Method: STANDARD PLATE) “inactive; negative”; (Test System: AMES SALMONELLA TYPHIMURIUM, Strain/Indicator: TA98, Metabolic Activation: NONE, Method: PREINCUBATION) “inactive; negative”; under setting [1], “active; positive”. Moreover, the mutagenic call by setting is: (Test System: AMES SALMONELLA TYPHIMURIUM, Strain/Indicator: TA98, Metabolic Activation: RAT, LIVER, S-9, AROCLOR 1254 OR PHENOBARBITOL, Method: STANDARD PLATE) “active; positive”; (Test System: AMES SALMONELLA TYPHIMURIUM, Strain/Indicator: TA98, Metabolic Activation: RAT, LIVER, S-9, PHENOBARBITAL AND BETA-NAPHTHOFLAVONE, Method: PREINCUBATION) “inactive; negative”; (Test System: AMES SALMONELLA TYPHIMURIUM, Strain/Indicator: TA98, Metabolic Activation: RAT, LIVER, S-9, Method: PREINCUBATION) “inactive; negative”; (Test System: AMES SALMONELLA TYPHIMURIUM, Strain/Indicator: TA100, Metabolic Activation: NONE, Method: PREINCUBATION) “inactive; negative”; (Test System: AMES SALMONELLA TYPHIMURIUM, Strain/Indicator: TA100, Metabolic Activation: RAT LIVER S-9, PHENOBARBITAL, Method: STANDARD PLATE) “inactive; negative”; (Test System: AMES SALMONELLA TYPHIMURIUM, Strain/Indicator: TA100, Metabolic Activation: RAT, LIVER, S-9, AROCLOR 1254 OR PHENOBARBITOL, Method: STANDARD PLATE) “active; positive”. The mutagenic call is “inactive; negative” (Test System: AMES SALMONELLA TYPHIMURIUM, Strain/Indicator: TA100, Metabolic Activation: RAT, LIVER, S-9, PHENOBARBITAL AND BETA-NAPHTHOFLAVONE, Method: PREINCUBATION); “inactive; negative” (Test System: AMES SALMONELLA TYPHIMURIUM, Strain/Indicator: TA100, Metabolic Activation: RAT, LIVER, S-9, Method: PREINCUBATION); “inactive; negative” (Test System: AMES SALMONELLA TYPHIMURIUM, Strain/Indicator: TA102, Metabolic Activation: NONE, Method: PREINCUBATION); “inactive; negative” (Test System: AMES SALMONELLA TYPHIMURIUM, Strain/Indicator: TA102, Metabolic Activation: NONE, Method: STANDARD PLATE); “inactive; negative” (Test System: AMES SALMONELLA TYPHIMURIUM, Strain/Indicator: TA102, Metabolic Activation: RAT LIVER S-9, PHENOBARBITAL, Method: STANDARD PLATE); “inactive; negative” (Test System: AMES SALMONELLA TYPHIMURIUM, Strain/Indicator: TA102, Metabolic Activation: RAT, LIVER, S-9, PHENOBARBITAL AND BETA-NAPHTHOFLAVONE, Method: PREINCUBATION). For the same molecule, the mutagenic call runs as follows: (Test System: AMES SALMONELLA TYPHIMURIUM, Strain/Indicator: TA104, Metabolic Activation: NONE, Method: STANDARD PLATE) “inactive; negative”; (Test System: AMES SALMONELLA TYPHIMURIUM, Strain/Indicator: TA104, Metabolic Activation: RAT LIVER S-9, PHENOBARBITAL, Method: STANDARD PLATE) “inactive; negative”; under setting [2], “inactive; negative”; (Test System: AMES SALMONELLA TYPHIMURIUM, Strain/Indicator: TA1535, Metabolic Activation: RAT, LIVER, S-9, AROCLOR 1254 OR PHENOBARBITOL, Method: STANDARD PLATE) “inactive; negative”; (Test System: AMES SALMONELLA TYPHIMURIUM, Strain/Indicator: TA1537, Metabolic Activation: NONE, Method: PREINCUBATION) “active; positive”; (Test System: AMES SALMONELLA TYPHIMURIUM, Strain/Indicator: TA1537, Metabolic Activation: NONE, Method: STANDARD PLATE) “inactive; negative”. The mutagenic call (Test System: AMES SALMONELLA TYPHIMURIUM, Strain/Indicator: TA1537, Metabolic Activation: RAT, LIVER, S-9, AROCLOR 1254, Method: PREINCUBATION) is “active; positive”; the mutagenic call (Test System: AMES SALMONELLA TYPHIMURIUM, Strain/Indicator: TA1537, Metabolic Activation: RAT, LIVER, S-9, AROCLOR 1254, Method: STANDARD PLATE) is “active; positive”; the mutagenic call (Test System: AMES SALMONELLA TYPHIMURIUM, Strain/Indicator: TA1537, Metabolic Activation: RAT, LIVER, S-9, AROCLOR 1254 OR PHENOBARBITOL, Method: STANDARD PLATE) is “inactive; negative”; the mutagenic call (Test System: AMES SALMONELLA TYPHIMURIUM, Strain/Indicator: TA1538, Metabolic Activation: NONE, Method: STANDARD PLATE) was “inactive; negative”; the mutagenic call (Test System: AMES SALMONELLA TYPHIMURIUM, Strain/Indicator: TA1538, Metabolic Activation: RAT, LIVER, S-9, AROCLOR 1254 OR PHENOBARBITOL, Method: STANDARD PLATE) is “inactive; negative”; the mutagenic call (Test System: E.COLI, Strain/Indicator: WP2UVRA/PKM101, Metabolic Activation: NONE, Method: PREINCUBATION) was “inactive; negative”. Besides, the mutagenic call (Test System: E.COLI, Strain/Indicator: WP2UVRA/PKM101, Metabolic Activation: RAT LIVER S-9, PHENOBARBITAL AND 5,6-BENZOFLAVONE, Method: PREINCUBATION) is “inactive; negative”.
As for `[Ru]`, the mutagenic call (End Point: In vitro chromosomal aberrations, Test System: Human lymphocytes, Metabolic Activation: None) was “inactive; negative. actual compound tested was cis(dichloro)tetraammonium ruthenium(iii)ch”.
For `Cn1c(N=[N+]=[N-])nc2c3ccccc3ccc21`, the mutagenic call (Test System: AMES SALMONELLA TYPHIMURIUM, Strain/Indicator: TA98(1,8-DNP6), Metabolic Activation: NONE, Method: STANDARD PLATE) is “active; positive” and the mutagenic call under setting [1] is “active; positive”.
With `O=C(/C=C/c1ccccc1)OC/C=C/c1ccccc1`, the mutagenic call was “active; positive” (Test System: AMES SALMONELLA TYPHIMURIUM, Strain/Indicator: TA1538, Metabolic Activation: NONE, Method: PREINCUBATION); “active; inconclusive (previous evaluation positive)” (Test System: Mouse lymphoma, Strain/Indicator: L5178Y (tk+/tk-), Metabolic Activation: None, Method: Suspension/plate); “active; positive” (Test System: Mouse lymphoma, Strain/Indicator: L5178Y (tk+/tk-), Metabolic Activation: Rat, Liver, S-9, Aroclor 1254, Method: Suspension/plate).
For the molecule `CN=[N+](C)[O-]`, the mutagenic call was “active; positive” (Test System: AMES SALMONELLA TYPHIMURIUM, Strain/Indicator: TA100, Metabolic Activation: RAT, LIVER, S-9, KC500 OR PHENOBARBITAL, Method: LIQUID SUSPENSION); “inactive; negative” (Test System: AMES SALMONELLA TYPHIMURIUM, Strain/Indicator: TA1535, Metabolic Activation: HAMSTER, LIVER, S-9, AROCLOR 1254, Method: PREINCUBATION); “inactive; negative” (Test System: AMES SALMONELLA TYPHIMURIUM, Strain/Indicator: TA1535, Metabolic Activation: NONE, Method: PREINCUBATION); “inactive; negative” under setting [2]; “inactive; negative” (Test System: AMES SALMONELLA TYPHIMURIUM, Strain/Indicator: TA1535, Metabolic Activation: RAT, LIVER, S-9, AROCLOR 1254, Method: PREINCUBATION); “active; positive” (Test System: AMES SALMONELLA TYPHIMURIUM, Strain/Indicator: TA1535, Metabolic Activation: RAT, LIVER, S-9, KC500 OR PHENOBARBITAL, Method: LIQUID SUSPENSION). Also, the mutagenic call is, setting by setting: (Test System: AMES SALMONELLA TYPHIMURIUM, Strain/Indicator: YG7108, Metabolic Activation: NONE, Method: STANDARD PLATE) “active; positive”; (Test System: E. COLI, Strain/Indicator: WP2 UVRA, Metabolic Activation: HAMSTER, LIVER, S-9, AROCLOR 1254, Method: PREINCUBATION) “inactive; negative”; (Test System: E. COLI, Strain/Indicator: WP2 UVRA, Metabolic Activation: HAMSTER, LIVER, S-9, Method: PREINCUBATION) “inactive; negative”; (Test System: E. COLI, Strain/Indicator: WP2 UVRA, Metabolic Activation: MOUSE, LIVER, S-9, AROCLOR 1254, Method: PREINCUBATION) “inactive; negative”; (Test System: E. COLI, Strain/Indicator: WP2 UVRA, Metabolic Activation: MOUSE, LIVER, S-9, Method: PREINCUBATION) “inactive; negative”; (Test System: E. COLI, Strain/Indicator: WP2 UVRA, Metabolic Activation: NONE, Method: PREINCUBATION) “inactive; negative”. Also, the mutagenic call reads like this: (Test System: E. COLI, Strain/Indicator: WP2 UVRA, Metabolic Activation: RAT, LIVER, S-9, AROCLOR 1254, Method: PREINCUBATION) “inactive; negative”; (Test System: E. COLI, Strain/Indicator: WP2 UVRA, Metabolic Activation: RAT, LIVER, S-9, Method: PREINCUBATION) “inactive; negative”.

(Values after PubChem BioAssay AID1259407 (Chemical Carcinogenesis Research Information System (CCRIS), 2018).)
